# Activity calls are given as the source filed them. The rule behind the calls is not given here.
# What was measured:
# [1] = Clearance in rat plasma at 0.3 mg/kg, iv administered as bolus dose by HPLC-MS/MS analysis; format: ADME, organism-based
# PXR = target: T1, PXR (Homo sapiens, UniProt O75469); assay: Activation of PXR in human HepG2 cells assessed as induction of CYP3A4 expression at 2 x 10^-9 to 50 x 10^-6 mol/L by luciferase reporter gene assay relative to control; format: ADME, cell-based
# T1 sequence (O75469 whole entry): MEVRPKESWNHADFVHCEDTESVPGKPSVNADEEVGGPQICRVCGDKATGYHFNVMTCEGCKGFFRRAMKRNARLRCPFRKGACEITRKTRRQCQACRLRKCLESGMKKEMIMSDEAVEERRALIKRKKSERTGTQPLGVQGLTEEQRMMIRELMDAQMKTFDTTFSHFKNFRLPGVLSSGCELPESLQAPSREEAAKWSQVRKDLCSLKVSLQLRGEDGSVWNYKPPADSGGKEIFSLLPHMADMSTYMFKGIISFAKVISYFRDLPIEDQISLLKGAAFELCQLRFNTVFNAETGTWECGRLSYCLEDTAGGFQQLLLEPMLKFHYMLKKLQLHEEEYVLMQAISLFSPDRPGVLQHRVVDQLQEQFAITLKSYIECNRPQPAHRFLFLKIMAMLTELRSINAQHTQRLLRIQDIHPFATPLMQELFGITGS
# [2] = Toxicity in FITC-induced C57BL/6J mouse pulmonary fibrosis model assessed as change in body weight administered as bid dose via gavage pretreated for 45 mins before FITC addition until 72 hrs after FITC application; conditions: in vivo, po
# [3] = Blood clearance in human by measuring intrinsic clearance in human hepatocytes by MS/MS analysis; format: ADME, cell-based
# Mus musculus = assay: Antifibrotic activity in FITC-induced C57BL/6J mouse pulmonary fibrosis model assessed as reduction in lung weight at 100 to 500 mg/kg, bid administered via gavage pretreated for 45 mins before FITC addition until 72 hrs after FITC application; format: functional, organism-based
# Cytochrome P450 1A2 = target: T2, Cytochrome P450 1A2 (Homo sapiens, UniProt P05177); assay: Inhibition of CYP1A2 in human liver microsomes using phenacetin as substrate after 15 mins in presence of NADPH by LC-MS/MS analysis; format: ADME
# T2 sequence (P05177 whole entry): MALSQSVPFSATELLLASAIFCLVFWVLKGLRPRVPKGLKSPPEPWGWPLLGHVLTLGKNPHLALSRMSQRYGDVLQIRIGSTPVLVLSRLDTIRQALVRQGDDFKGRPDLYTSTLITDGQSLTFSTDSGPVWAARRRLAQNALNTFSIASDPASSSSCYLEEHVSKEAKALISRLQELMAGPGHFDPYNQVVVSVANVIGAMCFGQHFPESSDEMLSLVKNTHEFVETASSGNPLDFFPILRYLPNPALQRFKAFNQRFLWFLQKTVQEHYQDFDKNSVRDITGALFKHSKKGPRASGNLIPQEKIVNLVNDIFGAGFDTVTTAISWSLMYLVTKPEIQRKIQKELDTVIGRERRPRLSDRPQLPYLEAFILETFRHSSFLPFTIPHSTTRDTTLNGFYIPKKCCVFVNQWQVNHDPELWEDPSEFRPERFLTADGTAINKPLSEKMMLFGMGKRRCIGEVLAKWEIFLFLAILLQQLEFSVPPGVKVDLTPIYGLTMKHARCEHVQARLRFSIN
# [4] = Half life in rat at 0.3 mg/kg, iv administered as infusion for 15 mins by HPLC-MS/MS analysis; format: ADME, organism-based; conditions: in vivo
# [5] = Plasma clearance in mouse; format: ADME, organism-based
# [6] = Blood clearance in human by measuring intrinsic clearance in human liver microsomes by MS/MS analysis; format: ADME
smiles,measurement,setting,value
CCn1c(=O)c2c(C)c(C(=O)N3CCC(O)CC3)sc2n(CCC(F)(F)F)c1=O,clearance,[1],18.3 mL/min/kg
same,Emax,PXR,16%
same,Activity,[2],Non-Toxic
same,CLhep predicted,[3],< 3.5 mL/min/kg
same,Activity,Mus musculus,Active
same,IC50,Cytochrome P450 1A2,> 20 µM
same,half-life,[4],1.4 h
same,clearance,[5],10.2 mL/min/kg
same,CLhep predicted,[6],3.67 mL/min/kg

# — ChEMBL document CHEMBL4422615, “Novel non-xanthine antagonist of the A2B adenosine receptor: From HTS hit to lead structure” (Eur J Med Chem, 2019)
